Key:
[1] = target: T1, Nek2 (Homo sapiens, UniProt P51955); assay type: biochemical; details: for fold improvement in Nek2 potency on substitution of the thiophene: comparator not given
T1 sequence (P51955 1-445): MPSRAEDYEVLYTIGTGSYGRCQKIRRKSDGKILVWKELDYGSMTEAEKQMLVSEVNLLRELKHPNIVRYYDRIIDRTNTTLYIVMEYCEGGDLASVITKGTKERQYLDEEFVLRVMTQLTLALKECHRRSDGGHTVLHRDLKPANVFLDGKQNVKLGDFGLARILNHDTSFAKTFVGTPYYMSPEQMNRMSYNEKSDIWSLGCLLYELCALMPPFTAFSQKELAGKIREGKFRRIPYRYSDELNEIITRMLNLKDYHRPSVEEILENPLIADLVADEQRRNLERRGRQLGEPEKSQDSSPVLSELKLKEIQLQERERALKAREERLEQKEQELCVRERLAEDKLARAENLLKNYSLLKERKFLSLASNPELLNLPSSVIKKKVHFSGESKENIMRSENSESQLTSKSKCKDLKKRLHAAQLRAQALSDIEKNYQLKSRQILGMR

[2] = target: T2, Nek1 (Homo sapiens, UniProt Q96PY6); assay: Nek1 Caliper kinase assay; assay type: biochemical; details: Nek2 versus Nek1
T2 sequence (Q96PY6 1-505 limits assumed): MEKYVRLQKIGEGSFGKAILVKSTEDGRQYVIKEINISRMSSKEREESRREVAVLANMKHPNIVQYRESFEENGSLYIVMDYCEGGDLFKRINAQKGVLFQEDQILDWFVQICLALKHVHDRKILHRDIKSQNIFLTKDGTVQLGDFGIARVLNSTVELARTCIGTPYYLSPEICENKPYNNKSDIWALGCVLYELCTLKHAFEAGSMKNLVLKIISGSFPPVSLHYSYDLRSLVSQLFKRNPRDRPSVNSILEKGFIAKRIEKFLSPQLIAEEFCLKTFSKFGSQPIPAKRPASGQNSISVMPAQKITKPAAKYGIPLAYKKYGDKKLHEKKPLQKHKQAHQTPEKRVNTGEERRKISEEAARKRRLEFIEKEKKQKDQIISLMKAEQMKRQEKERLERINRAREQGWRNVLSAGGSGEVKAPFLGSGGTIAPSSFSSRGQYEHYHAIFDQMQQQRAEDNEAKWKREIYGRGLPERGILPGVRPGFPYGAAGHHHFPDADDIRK

fold loss of Nek2 potency compared to hit 2 [1] | fold improvement in Nek2 potency on substitution of the thiophene [1] | selectivity against Nek1 [2] | SMILES
4-5 fold |  |  | COc1cccc(-c2cnc(N)c(N3CCC(C(=O)O)CC3)n2)c1 [Compound 5]
approximately 50 fold |  |  | Nc1nccnc1N1CCC(C(=O)O)CC1 [Compound 8]
10 |  |  | COc1cc(-c2cnc(N)c(N3CC[C@H](C(=O)O)[C@H](C)C3)n2)cc(OC)c1OC [Compound 20, (−)-(3S,4S)-1-(3-Amino-6-(3,4,5-trimethoxyphenyl)pyrazin-2-yl)-3-methylpiperidine-4-carboxylic Acid]
 | approximately 4 fold | approximately 10 fold | CCc1ccsc1-c1cnc(N)c(N2CCC(C(=O)O)CC2)n1 [Compound 35]
 | approximately 4 fold |  | Nc1ncc(-c2sccc2C2CC2)nc1N1CCC(C(=O)O)CC1 [Compound 36]

— publication PMC2972649 (Journal of Medicinal Chemistry, 2010)
